Patent US11400160B2, “Multifunctional conjugates” (E.P.O.S IASIS Research and Development Limited, priority 2017, dated 2022)
Like-named read-outs stand apart in the source and are kept apart here.

Assays:
[1] = system: breast and prostate cancer metastatic cell lines; experiment: Dose response of cell viability of breast and prostate cancer cells (FIG. 1); format: cell-based
MDA-MB231 cells = experiment: Cell viability, crystal violet colorimetric assay; format: cell-based; details: 72 hrs; for IC50: tested at 0.02-0.1 mM; for EC50: * denotes EC50 value, read-out: EC50 value (starred) MB231
Experimental: (§1) Immortalised osteolytic metastatic breast cancer cell lines, a) hormone-dependent MCF-7 and b) hormone refractory MDA-MB231, together with the daughter line MDA-MB231TXSA were incubated with 5 gradual concentrations of compounds of the invention as described below. Cell viability was assessed with the crystal violet colorimetric assay and IC50s were evaluated.
(§2) Medium was removed from cell cultures and cells were fixed with 4% v/v formaldehyde for 5 mins at room temperature. Formalin was then removed and CV added for 10 mins at room temperature followed by several washes with dsH2O. Samples were allowed to dry overnight. The following day, 10% acetic acid was added for 15 mins and optical density at 620 nm was measured. Optical densities versus compound concentrations were plotted in graphs and IC50s estimated by linear regression analysis using the WorkOut (VictorX4) software.
(§3) MCF-7, MDA-MB231 and MDA-MB231TXSA cells were seeded in 96-well-plates and allowed to attach overnight. The following day media were replaced with fresh media containing the following compounds: Both free tetraethyl methylbisphosphonate (bpp(OEt)) and bpp(OEt) in 1:1 combination with the free chromanol and the biphosphonate conjugates were tested at 5 gradual concentrations of: 0.02, 0.04, 0.06, 0.08 and 0.1 mM.
(§4) Cells were cultured in the presence of the compounds for 72 hrs and viability was assessed on day 3 by crystal violet assay. The cell lines were selected for their high bone metastatic potential. The fluorescently transfected line MB231TXSA, derived from line MB231 is also used in animal studies (WP7).

MDA-MB231TXSA cells = experiment: Cell viability, crystal violet colorimetric assay; format: cell-based; details: 72 hrs; for IC50: tested at 0.02-0.1 mM, read-out: IC50 values MB231-TXSA
Experimental: as §1, §2, §3, §4

MCF-7 cells = experiment: Cell viability, crystal violet colorimetric assay; format: cell-based; details: 72 hrs; for IC50: tested at 0.02-0.1 mM, unstarred values; for EC50: * denotes EC50 value, read-out: EC50 value (starred) MCF-7
Experimental: as §1, §2
MCF-7, MDA-MB231 and MDA-MB231TXSA cells were seeded in 96-well-plates and allowed to attach overnight. […]
as §4

[2] = system: metastatic breast cancer cell lines (MCF-7, MDA-MB231, MDA-MB231TXSA); experiment: Cell viability / antiproliferative activity, breast cancer lines; format: cell-based; details: for antiproliferative activity compared with bpp(OEt): esterified compounds and 1:1 mixtures; for effect on cell viability: viability assays and IC50s, 72 hrs
Experimental: as §1, §2, §3, §4

RAW264.7 cells = experiment: In vitro osteoclastogenesis of RAW264.7 (TRAP staining); format: cell-based, murine; details: RANKL-differentiated; γ-tocopherol at 1 μg/ml and 201 μg/ml; bpp(OEt) at increasing concentrations; FIG. 4
Experimental: (§5) Human peripheral blood mononuclear cells (PBMCs) and the RAW264.7 murine monocytic cell line were differentiated into osteoclast-like cells in the presence of RANKL plus M-CSF and have been used as model systems of osteoclastogenesis. Osteoclast-like cells, from Giant Cell Tumours (GCT) of bone specimens from three independent donors were used to investigate the effect of compounds of the invention on the bone resorbing activity of mature osteoclasts.
(§6) Cells were cultured in 96-well plates at a density of 1×10^4 cells/well in DMEM medium with 10% FCS, L-glutamine (2 mM) and Hepes (20 mM). Cells were allowed to attach for 4 hrs before treatment with RANKL (50 ng/ml) in the presence or absence of increasing concentrations of compounds of the invention as above. Medium and treatments were replaced on day three and TRAP activity determined on day 5. The overall number of viable cells were determined by crystal violet staining.
Osteoclast cultures established by the differentiation of RAW264.7 cells in wells were fixed and stained for tartrate resistant acid phosphatase (TRAP) as recommended by the manufacturer on days 4 and 5. TRAP positive cells were visualised by light microscopy and images taken with a digital camera.

[3] = system: osteoclasts from RAW264.7 and Human PBMC; experiment: Resorption on pre-loaded whale dentine / osteologic slides (pit formation); format: cell-based, murine
Excerpt: Zoledronic acid was used as control.
as §5
Human PBMCs were isolated from normal healthy donors isolated from the buffy coats acquired from the local Red Cross Blood Service. The cells were diluted in Hanks Balanced Salt Solution (HBSS) and separated by gradient centrifugation with Lymphoprep™. Isolated cells were resuspended in α MOD, 10% FCS, L-glutamine (2 mM), Hepes (20 mM), supplemented with M-CSF (25 ng/ml), 1α,25(OH)2 vitamin D3 (10 nM) and dexamethasone (10 nM) and plated into 96-well plates containing whale dentine slices, for the bone resorption assay or directly into wells for TRAP staining. The following day, media were removed and replaced with media as above, supplemented with RANKL (100 ng/ml) in the presence or absence of increasing concentrations of compounds of the invention. Medium and treatments were replaced every three days.
as §6
Whale dentine slices will be washed in extran, rinsed with distilled water, washed in 70% ethanol and dried overnight. The dentine slices mounted on stubs, carbon-coated and visualised on a Philips XL-20 scanning electron microscope, (SEM) as previously described. Images will be analysed using ImageQuant software and the area of resorption determined for each dentine slice (quadruplicate dentine slices for each treatment). Results are expected to be average resorption area +/− standard errors of the mean (SEM) and the significant differences between treatments will be determined using Students t-tests (2-tailed, unpaired).
(§7) In a separate experiment, pre-loaded bone slices (whale dentine) or commercial forms of hydroxyapatite (osteologic slides) with either free γ-tocopherol (γToc) or γ-tocopherol-bpp(OEt) (BP-γToc) and then washed away unbound drug.

[4] = Binding to pre-loaded bone slices / hydroxyapatite after washing; details: pre-loaded whale dentine or osteologic slides, unbound drug washed away
Excerpt: as §7

[5] = system: metastatic breast cancer lines; experiment: DAPI staining of apoptotic nuclei; format: cell-based; details: cells treated with IC50 concentrations
Experimental: Compounds with statistically significant decrease in viability were further examined to determine whether their effect was due to induced apoptosis based on morphologic criteria in DAPI-stained cells. […] Pro-apoptotic efficacies were compared using two-way analysis of Variance (ANOVA) followed by Bonferroni post-tests.
Growth medium was removed and cells were fixed with 4% v/v formaldehyde in PBS for 5 mins at room temperature. Fixed cells were washed once with PBS and incubated with 1 μg/ml DAPI in PBS for 20 mins at 37° C. Rinsed with PBS and mounted in mounting medium. Coverslips were sealed on glass slides and examined for the presence of apoptotic cells by fluorescence microscopy (see FIG. 2).

[6] = system: Caspase-3 activity in MB231 breast cancer cell-line; experiment: Caspase-3 enzymatic activity assay; format: cell-based; details: IC50 concentrations, two-way ANOVA with Bonferroni post-tests
Experimental: Cells were grown in 12 well-plates in the presence of IC50 concentrations of compounds of the invention or culture medium with 0.1% v/v ethanol as control and were washed with PBS and incubated with lysis buffer for 15 mins at 4° C. Lysates were centrifuged at 15000 g. 20 μl of each lysate suspension was incubated with 100 μl of protease buffer containing 10 μM of fluorescent substrate zDEVD-AFC (3 samples/lysate) for 4 hrs at room temperature. Caspase-3 enzymatic activity was measured every 1 hr by fluorescence with excitation at 405 nm and emission at 515/30 nm.
Fluorescence measurements were plotted in graphs against time and were statistically analysed by two-way ANOVA followed by Bonferroni post-tests to identify statistically significant apoptotic activities of compounds of the invention (see FIG. 3).

Molecule | cell viability on breast and prostate cancer metastatic cell lines [1] | IC50 (MDA-MB231 cells; Exp.1, unstarred values) [µM] | IC50 (MDA-MB231 cells; Exp.2) [µM] | EC50 (MDA-MB231 cells; Exp.4) [µM] | IC50 (MDA-MB231TXSA cells; Exp.1) [µM] | IC50 (MDA-MB231TXSA cells; Exp.3) [µM] | IC50 (MDA-MB231TXSA cells; Exp.4) [µM] | EC50 (MCF-7 cells; Exp.3) [µM] | IC50 (MDA-MB231 cells; Exp.3, unstarred values) [µM] | IC50 (MDA-MB231 cells; Exp.4, unstarred values) [µM] | IC50 (MCF-7 cells; Exp.4) [µM] | antiproliferative activity compared with bpp(OEt) [2] | effect on cell viability [2] | further results
CC(C)=CCC/C(C)=C/CC/C(C)=C/CC[C@]1(C)CCc2cc(O)c(C)c(C)c2O1 [γ-Tocotrienol] | inhibited in a dose-dependent manner | – | – | – | – | – | – | – | – | – | – | – | – | –
CCOP(=O)(OCC)C(CCC(=O)O)P(=O)(OCC)OCC [bpp(OEt), Tetra Ethyl 4,4-bis(phosphono)-butanoic Acid, reference compound] | without effect | 106 | 242 | 710 | 441 | 136 | 179 | 365 | – | – | – | – | – | EC50 (MDA-MB231 cells; Exp.3): 74.2 µM; IC50 (MDA-MB231TXSA cells; Exp.2, unstarred values): 129 µM; IC50 (MCF-7 cells; Exp.1): 107 µM; EC50 (MCF-7 cells; Exp.2): 143 µM; EC50 (MCF-7 cells; Exp.4): 1980 µM; antiproliferative/proapoptotic effect in metastatic breast cancer cell-lines [2]: did not have antiproliferative/proapoptotic effect; osteoclastogenesis of Raw264.7 (RAW264.7 cells): inhibited osteoclastogenesis in a dose-dependent manner; anti-resorptive activity of the free bisphosphonate [3]: minimal anti-resorptive activity; binding to bone substrate / bone mineral [4]: high affinity for bone
α-tocopheryl Bisphosphonic Acid [α-toc-bpp(OH)] | – | – | – | – | – | 88.8 | 75.9 | 351 | 61.6 | 238 | 64.1 | increased | reduced cell viability | –
Cc1c(C)c2c(c(C)c1O)CC[C@@](C)(CCC[C@H](C)CCC[C@H](C)CCCC(C)C)O2 [α-toc, α-tocopherol, reference compound] | – | – | – | 131 | – | 137 | 88.7 | – | 103 | – | 54.5 | – | – | IC50 (MCF-7 cells; Exp.3): 54.7 µM
γ-tocopheryl Diphosphonic Acid [γ-toc-bpp(OH)] | – | 172 | 66.2 | – | 92 | – | – | – | – | – | – | increased | reduced cell viability | EC50 (MDA-MB231TXSA cells; Exp.2, * denotes EC50 value, read-out: EC50 value (starred) MB231-TXSA): 182 µM; EC50 (MCF-7 cells; Exp.1): 303 µM; IC50 (MCF-7 cells; Exp.2): 65.1 µM; antiproliferative activity compared with γ-tocopherol ([2]; upon esterification of γ-tocopherol): increased; apoptotic nuclei (condensed chromatin, fractured nuclei) by DAPI staining [5]: increased numbers of apoptotic nuclei; pro-apoptotic activity (Caspase-3 activity) [6]: did not show significant pro-apoptotic activity
CCOP(=O)(OCC)C(CCC(=O)Oc1c(C)c(C)c2c(c1C)CCC(C)(CCCC(C)CCCC(C)CCCC(C)C)O2)P(=O)(OCC)OCC (stereo not drawn) [α-toc-bpp(OEt), α-Tocopheryl Bisphosphonic Ester] | – | – | – | – | – | 98.1 | 73 | 152 | 128 | 281 | 76.8 | increased | reduced cell viability | –
